Test results reported in PubChem BioAssay (NCI).
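Tested at 5 concentrations; 48 h exposure; 96-well plates; endpoints linearly interpolated, else capped at highest concentration. GI50 = concentration required for 50% inhibition of growth. TGI marks complete inhibition of growth.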

What was measured:
Test in all cases: growth of human tumour cells (NCI), 48 h
[1] = test system: NCI/ADR-RES ovarian
[2] = test system: IGROV1 ovarian
[3] = test system: MCF7 breast
[4] = test system: TK-10 renal
[5] = test system: HCT-15 colon
[6] = test system: NCI-H522 lung
[7] = test system: SN12C renal
[8] = test system: OVCAR-3 ovarian
[9] = test system: K-562 leukemia
[10] = test system: SNB-19 CNS
[11] = test system: MOLT-4 leukemia
[12] = test system: OVCAR-5 ovarian
[13] = test system: A549 NSCLC
[14] = test system: SK-MEL-2 melanoma
[15] = test system: BT-549 breast
[16] = test system: RXF 393 renal
[17] = test system: RPMI-8226 leukemia
[18] = test system: HL-60(TB) leukemia
[19] = test system: KM12 colon
[20] = test system: SK-MEL-28 melanoma
[21] = test system: T-47D breast
[22] = test system: HOP-62 NSCLC
[23] = test system: HT29 colon
[24] = test system: NCI-H226 lung
[25] = test system: MALME-3M melanoma
[26] = test system: NCI-H23 lung
[27] = test system: CAKI-1 renal
[28] = test system: SF-295 CNS
[29] = test system: LOX IMVI melanoma
[30] = test system: UACC-62 melanoma
[31] = test system: NCI-H460 lung
[32] = test system: UO-31 renal
[33] = test system: SW-620 colon
[34] = test system: OVCAR-8 ovarian
[35] = test system: HS 578T breast
[36] = test system: CCRF-CEM leukemia
[37] = test system: HOP-92 NSCLC
[38] = test system: EKVX NSCLC
[39] = test system: PC-3 prostate
[40] = test system: MDA-MB-435
[41] = test system: ACHN renal
[42] = test system: HCT-116 colon
[43] = test system: DU-145 prostate
[44] = test system: U251 CNS
[45] = test system: MDA-MB-231 breast
[46] = test system: OVCAR-4 ovarian
[47] = test system: 786-0 renal
[48] = test system: SNB-75 CNS
[49] = test system: SF-268 CNS
[50] = test system: M14 melanoma
[51] = test system: UACC-257 melanoma
[52] = test system: HCC-2998 colon
[53] = test system: COLO 205 colon
[54] = test system: SR leukemia
[55] = test system: SK-OV-3 ovarian
[56] = test system: A498 renal

COc1ccc(CNS(=O)(=O)/N=C2\NC(=O)NC2=C(Cl)Cl)cc1
GI50 [1]: 2.93 µM
TGI [1]: > 100 µM
GI50 [2]: 3.3 µM
TGI [2]: 22 µM
GI50 [3]: 0.348 µM
TGI [3]: > 100 µM
GI50 [4]: 6.55 µM
TGI [4]: > 100 µM
GI50 [5]: 3.19 µM
TGI [5]: 11.6 µM
GI50 [6]: 2.07 µM
TGI [6]: 14.2 µM
GI50 [7]: 0.811 µM
TGI [7]: > 100 µM
GI50 [8]: 1.59 µM
TGI [8]: 17.5 µM
GI50 [9]: 1.64 µM
TGI [9]: > 100 µM
GI50 [10]: 1.14 µM
TGI [10]: > 100 µM
GI50 [11]: 0.435 µM
TGI [11]: 59.2 µM
GI50 [12]: 3.23 µM
TGI [12]: > 100 µM
GI50 [13]: 3.48 µM
TGI [13]: > 100 µM
GI50 [14]: 6.27 µM
TGI [14]: 42.8 µM
GI50 [15]: 0.981 µM
TGI [15]: 12.2 µM
GI50 [16]: 1.71 µM
TGI [16]: 6.79 µM
GI50 [17]: 0.352 µM
TGI [17]: 5.21 µM
GI50 [18]: 0.756 µM
TGI [18]: 5.64 µM
GI50 [19]: 0.327 µM
TGI [19]: > 100 µM
GI50 [20]: 8.08 µM
TGI [20]: 22 µM
GI50 [21]: 2.4 µM
TGI [21]: > 100 µM
GI50 [22]: 0.621 µM
TGI [22]: > 100 µM
GI50 [23]: 1.67 µM
TGI [23]: > 100 µM
GI50 [24]: 2.03 µM
TGI [24]: 5.51 µM
GI50 [25]: 5.62 µM
TGI [25]: 22.7 µM
GI50 [26]: 3.8 µM
TGI [26]: 17.7 µM
GI50 [27]: 3.05 µM
TGI [27]: 73.3 µM
GI50 [28]: 2.85 µM
TGI [28]: > 100 µM
GI50 [29]: 0.386 µM
TGI [29]: 10.8 µM
GI50 [30]: 2.89 µM
TGI [30]: 18.2 µM
GI50 [31]: 2.82 µM
TGI [31]: > 100 µM
GI50 [32]: 5.13 µM
TGI [32]: > 100 µM
GI50 [33]: 2.45 µM
TGI [33]: 16.6 µM
GI50 [34]: 3.38 µM
TGI [34]: > 100 µM
GI50 [35]: 2.09 µM
TGI [35]: > 100 µM
GI50 [36]: 0.364 µM
TGI [36]: 16.2 µM
GI50 [37]: 0.48 µM
TGI [37]: 10.4 µM
GI50 [38]: 4.39 µM
TGI [38]: > 100 µM
GI50 [39]: 2.61 µM
TGI [39]: > 100 µM
GI50 [40]: 1.36 µM
TGI [40]: 4.33 µM
GI50 [41]: 3.59 µM
TGI [41]: > 100 µM
GI50 [42]: 0.531 µM
TGI [42]: > 100 µM
GI50 [43]: 3.22 µM
TGI [43]: > 100 µM
GI50 [44]: 1.7 µM
TGI [44]: 14.6 µM
GI50 [45]: 1.92 µM
TGI [45]: 8.31 µM
GI50 [46]: 4.47 µM
TGI [46]: > 100 µM
GI50 [47]: 1.88 µM
TGI [47]: > 100 µM
GI50 [48]: 1.34 µM
TGI [48]: > 100 µM
GI50 [49]: 0.541 µM
TGI [49]: > 100 µM
GI50 [50]: 3.02 µM
TGI [50]: > 100 µM
GI50 [51]: 10.7 µM
TGI [51]: 68.6 µM
GI50 [52]: 3.2 µM
TGI [52]: 10.4 µM
GI50 [53]: 2.21 µM
TGI [53]: 5.1 µM
GI50 [54]: 2.86 µM
TGI [54]: 22.8 µM
GI50 [55]: 8.22 µM
TGI [55]: > 100 µM
GI50 [56]: 1.22 µM
TGI [56]: 5.39 µM
